Like-named read-outs stand apart in the source and are kept apart here.
How the values were obtained:
Assay type in all cases: biochemical
[1] = target: CDK2/CCNE1 (Homo sapiens, UniProt P24941); assay: CDK2 homogeneous time-resolved fluorescence (HTRF) kinase assay; conditions: CDK2/CCNE
Outline: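 Compounds were titrated 11-point, half-log from typically 10 μM against 3 nM CDK2/cyclin E1 at 1 mM ATP, with a 20 min enzyme preincubation. Phosphorylation of 50 nM ULight-4E-BP1 peptide over 60 min at 23 °C was detected by europium anti-phospho antibody TR-FRET.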

[2] = target: CDK1/CCNB1 (Homo sapiens, UniProt P06493); assay: CDK1 homogeneous time-resolved fluorescence (HTRF) kinase assay; conditions: CDK1/CCNB
Chain of CDK1/CCNB1 (P06493 whole entry): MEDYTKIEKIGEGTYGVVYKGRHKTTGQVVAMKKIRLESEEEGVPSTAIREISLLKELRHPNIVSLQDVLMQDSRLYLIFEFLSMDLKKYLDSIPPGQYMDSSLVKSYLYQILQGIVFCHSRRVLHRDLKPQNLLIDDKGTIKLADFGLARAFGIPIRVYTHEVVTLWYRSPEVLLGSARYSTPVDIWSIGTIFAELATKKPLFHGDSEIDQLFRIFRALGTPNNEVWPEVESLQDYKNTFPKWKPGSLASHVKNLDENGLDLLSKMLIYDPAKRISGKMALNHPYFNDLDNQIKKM
Chain of CDK1/CCNB1 (P14635 whole entry partner): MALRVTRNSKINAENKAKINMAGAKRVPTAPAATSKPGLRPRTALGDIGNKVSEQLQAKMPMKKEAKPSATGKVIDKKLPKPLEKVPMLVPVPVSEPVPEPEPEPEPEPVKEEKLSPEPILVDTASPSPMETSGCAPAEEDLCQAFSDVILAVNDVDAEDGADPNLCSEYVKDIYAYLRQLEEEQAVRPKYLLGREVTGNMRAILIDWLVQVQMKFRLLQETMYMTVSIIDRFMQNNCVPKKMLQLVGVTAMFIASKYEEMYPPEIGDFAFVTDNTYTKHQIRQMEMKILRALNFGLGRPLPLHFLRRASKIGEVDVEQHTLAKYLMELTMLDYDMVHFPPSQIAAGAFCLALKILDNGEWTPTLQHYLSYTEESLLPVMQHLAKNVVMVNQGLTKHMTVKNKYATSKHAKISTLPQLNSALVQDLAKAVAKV
Outline: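 Kinase activity is measured as Lance signal (665 nm, or 665/615 nm ratio) from europium-labelled anti-phospho-Thr37/46 antibody binding ULight-4E-BP1 peptide. Reactions contain 0.5 nM enzyme, 1 mM ATP, 1% DMSO and run 60 min at 23 °C before EDTA quench.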

[3] = target: CDK4/CCND3 (Homo sapiens, UniProt P11802); assay: CDK4 homogeneous time-resolved fluorescence (HTRF) kinase assay; conditions: CDK4/CCND
Chain of CDK4/CCND3 (P11802 whole entry): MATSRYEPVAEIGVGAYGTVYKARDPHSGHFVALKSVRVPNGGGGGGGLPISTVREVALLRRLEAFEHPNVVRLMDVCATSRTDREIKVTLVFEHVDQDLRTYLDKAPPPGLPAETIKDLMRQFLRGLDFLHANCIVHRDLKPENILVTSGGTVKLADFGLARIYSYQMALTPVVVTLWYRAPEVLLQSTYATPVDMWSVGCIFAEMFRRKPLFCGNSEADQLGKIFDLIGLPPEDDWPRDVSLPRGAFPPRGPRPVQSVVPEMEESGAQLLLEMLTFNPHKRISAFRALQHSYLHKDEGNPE
Chain of CDK4/CCND3 (P30281 whole entry partner): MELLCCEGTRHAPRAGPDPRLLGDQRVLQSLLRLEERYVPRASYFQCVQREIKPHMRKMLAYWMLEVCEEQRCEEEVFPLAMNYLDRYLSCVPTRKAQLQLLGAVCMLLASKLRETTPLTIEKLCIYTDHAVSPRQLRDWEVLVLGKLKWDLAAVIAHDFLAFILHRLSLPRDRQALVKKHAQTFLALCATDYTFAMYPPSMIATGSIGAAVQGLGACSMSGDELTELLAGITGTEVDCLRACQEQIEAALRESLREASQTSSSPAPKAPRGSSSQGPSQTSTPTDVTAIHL
Outline: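 CDK4/CCND3 at 1.5 nM was preincubated with compound for 20 min at 23 °C, then reacted for 60 min with 1 mM ATP and 50 nM ULight-4E-BP1 (Thr37/46) peptide. The reaction was stopped with EDTA, and phosphorylation was read by HTRF with a Eu-anti-phospho antibody. IC50 values came from 11-point half-log titrations, typically from 10 μM.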

[4] = target: CDK6/CCND1 (Homo sapiens, UniProt Q00534); assay: CDK6 homogeneous time-resolved fluorescence (HTRF) kinase assay; conditions: CDK6/CCND
Chain of CDK6/CCND1 (Q00534 whole entry): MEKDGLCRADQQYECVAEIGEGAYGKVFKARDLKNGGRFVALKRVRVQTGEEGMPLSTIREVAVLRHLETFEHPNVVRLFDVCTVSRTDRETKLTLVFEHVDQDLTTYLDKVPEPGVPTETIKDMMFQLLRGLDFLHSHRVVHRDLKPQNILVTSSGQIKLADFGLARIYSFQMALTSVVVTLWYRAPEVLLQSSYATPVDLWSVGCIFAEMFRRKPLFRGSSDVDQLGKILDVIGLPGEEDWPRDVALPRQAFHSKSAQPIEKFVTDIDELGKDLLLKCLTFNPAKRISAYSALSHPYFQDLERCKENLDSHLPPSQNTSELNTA
Chain of CDK6/CCND1 (P24385 whole entry partner): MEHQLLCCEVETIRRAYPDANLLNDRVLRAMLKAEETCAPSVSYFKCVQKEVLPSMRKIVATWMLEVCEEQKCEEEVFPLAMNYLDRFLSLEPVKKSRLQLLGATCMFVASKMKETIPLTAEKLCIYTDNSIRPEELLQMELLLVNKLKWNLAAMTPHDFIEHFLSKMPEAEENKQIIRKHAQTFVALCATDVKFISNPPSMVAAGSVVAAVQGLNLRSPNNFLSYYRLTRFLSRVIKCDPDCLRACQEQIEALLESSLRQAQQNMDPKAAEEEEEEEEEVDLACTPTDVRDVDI
Outline: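 Enzyme pre-incubated 20 min at 23 °C with compound, then reacted 60 min at 23 °C with 1 mM ATP and 50 nM ULight-4E-BP1 (Thr37/46) peptide; 1 nM enzyme, 1% DMSO. EDTA-stopped, Eu-anti-phospho antibody TR-FRET read (665 nm or 665/615 ratio); 11-point half-log titration from 10 μM gave IC50.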

[5] = x = IC50 <25 nM, read-out: CDK2/CCNE IC50 (<25 nM)
[6] = x = IC50 >250 nM, read-out: CDK1/CCNB IC50 (>250 nM column)
[7] = x = IC50 >250 nM, read-out: CDK4/CCND IC50 (>250 nM column)
[8] = x = IC50 >250 nM, read-out: CDK6/CCND IC50 (>250 nM column)
[9] = x = IC50 25-250 nM, read-out: CDK2/CCNE IC50 (25-250 nM)
[10] = x = IC50 25-250 nM, read-out: CDK1/CCNB IC50 (25-250 nM)
[11] = x = IC50 25-250 nM, read-out: CDK4/CCND IC50 (25-250 nM)
[12] = x = IC50 25-250 nM, read-out: CDK6/CCND IC50 (25-250 nM)

IC50 [1, 5] [µM] | IC50 [2, 6] [µM] | IC50 [3, 7] [µM] | IC50 [4, 8] [µM] | IC50 [1, 9] [µM] | IC50 [2, 10] [µM] | IC50 [3, 11] [µM] | IC50 [4, 12] [µM] | IC50 ([2]; x = IC50 <25 nM, read-out: CDK1/CCNB IC50 (<25 nM)) [µM] | IC50 ([3]; x = IC50 <25 nM, read-out: CDK4/CCND IC50 (<25 nM)) [µM] | Structure (SMILES)
< 0.025 | > 0.25 | > 0.25 | > 0.25 | – | – | – | – | – | – | CCS(=O)(=O)c1ccc(Nc2cc3c(C#Cc4cccnc4N)nccc3cn2)cc1 [Ex 401, 5-((2-aminopyridin-3-yl)ethynyl)-N-(4-(ethylsulfonyl)phenyl)-2,6-naphthyridin-3-amine]
< 0.025 | – | > 0.25 | > 0.25 | – | 0.025 to 0.25 | – | – | – | – | CCS(=O)(=O)c1ccc(Nc2cc3c(C#Cc4ccc5c(c4)NC(=O)C54CCC4)nccc3cn2)cc1 [Ex 405, 6'-((7-((4-(ethylsulfonyl)phenyl)amino)-2,6-naphthyridin-1-yl)ethynyl)spiro[cyclobutane-1,3'-indolin]-2'-one]
< 0.025 | > 0.25 | > 0.25 | > 0.25 | – | – | – | – | – | – | CCC1(CC)C(=O)Nc2cc(C#Cc3nccc4cnc(Nc5ccc(S(=O)(=O)C6CCC6)cc5)cc34)ccc21 [Ex 409, 6-((7-((4-(cyclobutylsulfonyl)phenyl)amino)-2,6-naphthyridin-1-yl)ethynyl)-3,3-diethylindolin-2-one]
< 0.025 | > 0.25 | > 0.25 | > 0.25 | – | – | – | – | – | – | CC1(C)C(=O)Nc2cc(C#Cc3nccc4cnc(Nc5ccc(S(C)(=O)=O)c(F)c5)cc34)ccc21 [Ex 422, 6-((7-((3-fluoro-4-(methylsulfonyl)phenyl)amino)-2,6-naphthyridin-1-yl)ethynyl)-3,3-dimethylindolin-2-one]
– | > 0.25 | > 0.25 | > 0.25 | 0.025 to 0.25 | – | – | – | – | – | CC1(C)C(=O)Nc2cc(C#Cc3nccc4cnc(Nc5ccc(S(C)(=O)=O)nc5)cc34)ccc21 [Ex 425, 3,3-dimethyl-6-((7-((6-(methylsulfonyl)pyridin-3-yl)amino)-2,6-naphthyridin-1-yl)ethynyl)indolin-2-one]
< 0.025 | > 0.25 | > 0.25 | > 0.25 | – | – | – | – | – | – | CCC1(CC)C(=O)Nc2cc(C#Cc3nccc4cnc(Nc5ccc(S(=O)(=O)C(C)C)cc5)cc34)ccc21 [Ex 429, 3,3-diethyl-6-((7-((4-(isopropylsulfonyl)phenyl)amino)-2,6-naphthyridin-1-yl)ethynyl)indolin-2-one]
< 0.025 | > 0.25 | > 0.25 | > 0.25 | – | – | – | – | – | – | CCC1(CC)C(=O)Nc2cc(C#Cc3nccc4cnc(Nc5ccc(S(=O)(=O)CC)cc5)cc34)ccc21 [Ex 430, 3,3-diethyl-6-((7-((4-(ethylsulfonyl)phenyl)amino)-2,6-naphthyridin-1-yl)ethynyl)indolin-2-one]
< 0.025 | – | – | – | – | – | – | 0.025 to 0.25 | < 0.025 | < 0.025 | CC1(C)C(=O)Nc2cc(C#Cc3nccc4cnc(Nc5ccc(S(=O)(=O)NC6CCNCC6)cc5)cc34)ccc21 [Ex 442, 4-((5-((3,3-dimethyl-2-oxoindolin-6-yl)ethynyl)-2,6-naphthyridin-3-yl)amino)-N-(piperidin-4-yl)benzenesulfonamide]

The next lines start with the compound.

Structure (SMILES) | IC50 [1, 5] [µM] | IC50 [2, 6] [µM] | IC50 [3, 7] [µM] | IC50 [4, 8] [µM] | IC50 [1, 9] [µM] | IC50 [2, 10] [µM] | IC50 [3, 11] [µM] | IC50 [4, 12] [µM] | IC50 ([2]; x = IC50 <25 nM, read-out: CDK1/CCNB IC50 (<25 nM)) [µM] | IC50 ([3]; x = IC50 <25 nM, read-out: CDK4/CCND IC50 (<25 nM)) [µM]
Nc1ncccc1C#Cc1nccc2cnc(Nc3ccc(S(=O)(=O)C4CC4)cc3)cc12 [Ex 399, 5-((2-aminopyridin-3-yl)ethynyl)-N-(4-(cyclopropylsulfonyl)phenyl)-2,6-naphthyridin-3-amine] | < 0.025 | > 0.25 | > 0.25 | > 0.25 | – | – | – | – | – | –
CC(C)S(=O)(=O)c1ccc(Nc2cc3c(C#Cc4cccnc4N)nccc3cn2)cc1 [Ex 400, 5-((2-aminopyridin-3-yl)ethynyl)-N-(4-(isopropylsulfonyl)phenyl)-2,6-naphthyridin-3-amine] | – | > 0.25 | > 0.25 | > 0.25 | 0.025 to 0.25 | – | – | – | – | –
CC1(C)C(=O)Nc2cc(C#Cc3nccc4cnc(Nc5ccc(S(C)(=O)=O)c(Cl)c5)cc34)ccc21 [Ex 407, 6-((7-((3-chloro-4-(methylsulfonyl)phenyl)amino)-2,6-naphthyridin-1-yl)ethynyl)-3,3-dimethylindolin-2-one] | – | > 0.25 | > 0.25 | > 0.25 | 0.025 to 0.25 | – | – | – | – | –
CS(=O)(=O)c1ccc(Nc2cc3c(C#Cc4cccnc4N)nccc3cn2)c(F)c1 [Ex 418, 5-((2-aminopyridin-3-yl)ethynyl)-N-(2-fluoro-4-(methylsulfonyl)phenyl)-2,6-naphthyridin-3-amine] | – | > 0.25 | > 0.25 | > 0.25 | 0.025 to 0.25 | – | – | – | – | –
CS(=O)(=O)c1ccc(Nc2cc3c(C#Cc4cccnc4N)nccc3cn2)nc1 [Ex 419, 5-((2-aminopyridin-3-yl)ethynyl)-N-(5-(methylsulfonyl)pyridin-2-yl)-2,6-naphthyridin-3-amine] | – | > 0.25 | > 0.25 | > 0.25 | 0.025 to 0.25 | – | – | – | – | –
Cc1cc(S(C)(=O)=O)ccc1Nc1cc2c(C#Cc3cccnc3N)nccc2cn1 [Ex 420, 5-((2-aminopyridin-3-yl)ethynyl)-N-(2-methyl-4-(methylsulfonyl)phenyl)-2,6-naphthyridin-3-amine] | – | > 0.25 | > 0.25 | > 0.25 | 0.025 to 0.25 | – | – | – | – | –
CC1(C)C(=O)Nc2cc(C#Cc3nccc4cnc(Nc5ccc(S(C)(=O)=O)cc5Cl)cc34)ccc21 [Ex 423, 6-((7-((2-chloro-4-(methylsulfonyl)phenyl)amino)-2,6-naphthyridin-1-yl)ethynyl)-3,3-dimethylindolin-2-one] | < 0.025 | > 0.25 | > 0.25 | > 0.25 | – | – | – | – | – | –
Cc1cc(S(C)(=O)=O)ccc1Nc1cc2c(C#Cc3ccc4c(c3)NC(=O)C4(C)C)nccc2cn1 [Ex 424, 3,3-dimethyl-6-((7-((2-methyl-4-(methylsulfonyl)phenyl)amino)-2,6-naphthyridin-1-yl)ethynyl)indolin-2-one] | < 0.025 | – | > 0.25 | > 0.25 | – | 0.025 to 0.25 | – | – | – | –
CN1CCC(NS(=O)(=O)c2ccc(Nc3cc4c(C#Cc5cccnc5N)nccc4cn3)cc2)CC1 [Ex 432, 4-((5-((2-aminopyridin-3-yl)ethynyl)-2,6-naphthyridin-3-yl)amino)-N-(1-methylpiperidin-4-yl)benzenesulfonamide] | < 0.025 | – | – | – | – | 0.025 to 0.25 | 0.025 to 0.25 | 0.025 to 0.25 | – | –
Nc1ncccc1C#Cc1nccc2cnc(Nc3ccc(S(=O)(=O)NC4CCNCC4)cc3)cc12 [Ex 433, 4-((5-((2-aminopyridin-3-yl)ethynyl)-2,6-naphthyridin-3-yl)amino)-N-(piperidin-4-yl)benzenesulfonamide] | < 0.025 | – | – | – | – | 0.025 to 0.25 | 0.025 to 0.25 | 0.025 to 0.25 | – | –
Nc1ncccc1C#Cc1nccc2cnc(Nc3ccc(S(=O)(=O)NC4CCOCC4)cc3)cc12 [Ex 434, 4-((5-((2-aminopyridin-3-yl)ethynyl)-2,6-naphthyridin-3-yl)amino)-N-(tetrahydro-2H-pyran-4-yl)benzenesulfonamide] | < 0.025 | > 0.25 | > 0.25 | > 0.25 | – | – | – | – | – | –
Nc1ncccc1C#Cc1nccc2cnc(Nc3ccc(S(=O)(=O)NC4CC4)cc3)cc12 [Ex 435, 4-((5-((2-aminopyridin-3-yl)ethynyl)-2,6-naphthyridin-3-yl)amino)-N-cyclopropylbenzenesulfonamide] | < 0.025 | – | > 0.25 | > 0.25 | – | 0.025 to 0.25 | – | – | – | –
CC1(C)C(=O)Nc2cc(C#Cc3nccc4cnc(Nc5ccc(S(C)(=O)=O)cn5)cc34)ccc21 [Ex 439, 3,3-dimethyl-6-((7-((5-(methylsulfonyl)pyridin-2-yl)amino)-2,6-naphthyridin-1-yl)ethynyl)indolin-2-one] | < 0.025 | – | > 0.25 | > 0.25 | – | 0.025 to 0.25 | – | – | – | –
COc1cc(S(C)(=O)=O)ccc1Nc1cc2c(C#Cc3ccc4c(c3)NC(=O)C4(C)C)nccc2cn1 [Ex 440, 6-((7-((2-methoxy-4-(methylsulfonyl)phenyl)amino)-2,6-naphthyridin-1-yl)ethynyl)-3,3-dimethylindolin-2-one] | < 0.025 | > 0.25 | > 0.25 | > 0.25 | – | – | – | – | – | –

Source: patent publication US20260325533A1, “CDK INHIBITOR COMPOUNDS” (ALEKSIA THERAPEUTICS, INC., priority 2023, published 2026)
